# Test results as given in US7112676B2, “Pyrimido compounds having antiproliferative activity” (Hoffmann-La Roche Inc., priority 2002, dated 2006).
# Molecular target: T1, KDR (Homo sapiens, UniProt P35968)
# T1 construct: EEE-tag
# Assay: KDR kinase HTRF assay
# Format: biochemical
# Conditions: 0.3 mM ATP, read-out: IC50 (μM) - Enzyme Inhibition Assays KDR
# Procedure: To determine inhibition of KDR, FGFR, EGFR, and PDGFR activity, kinase assays were conducted using an HTRF (Homogeneous Time Resolved Fluorescence) assay. This assay is described in A. J. Kolb et. al., Drug Discovery Today, 1998, 3(7), p 333.
# Prior to kinase reaction, recombinant EEE-tagged KDR was activated in the presence of activation buffer (50 mM HEPES, pH 7.4, 1 mM DTT, 10% glycerol, 150 mM NaCl, 0.1 mM EDTA, 26 mM MgCl2, and 4 mM ATP). The enzyme was incubated at 4° C. for 1 hour.
# Kinase activity assays were performed in 96-well polypropylene plates (Falcon) with a total volume of 90 μL in each well. Each well contained 1 μM KDR substrate (Biotin-EEEEYFELVAKKKK), 1 nM activated KDR, and a test compound with one of 8 assay concentrations ranging from 100 μM to […] (1:5 serial dilution). The kinase activity assay was done in the presence of 100 mM HEPES, pH 7.4, 1 mM DTT, 0.1 mM Na2VO4, 25 mM MgCl2, 50 mM NaCl (from KDR stock solution), 1% DMSO (from compound), 0.3 mM ATP (at Km concentration) and 0.02% BSA. The reaction was incubated at 37° C. for 30 minutes. To stop the KDR reaction, 72 μL of reaction mixture was transferred into a STOP plate containing 18 μL of revelation buffer (20 mM EDTA, 50 mM HEPES, pH 7.4, 0.02% BSA, 10 nM Eu-labelled anti-pY antibody (final conc. 2 nM), and 100 nM streptavidin (final conc. 20 nM)). After mixing, 35 μL of solution was transferred into duplicate wells of a 384-well black plate (Costar), and read at 615/665 nm on a Wallac Victor 5 reader.
# Compound IC50 values were determined from duplicate sets of data, and calculated by using Excel and fitting data to equation Y=[(a−b)/{1+(X/c)^d]+b, where a and b are enzyme activity in the presence of no test inhibitor compound and an infinite amount of inhibitor test compound, respectively, c is the IC50 and d is the hill constant of the compound response. The IC50 value is the concentration of test compound that reduces by 50% the enzyme activity under the test conditions described.
# T1 sequence (P35968 20-1356, species assumed): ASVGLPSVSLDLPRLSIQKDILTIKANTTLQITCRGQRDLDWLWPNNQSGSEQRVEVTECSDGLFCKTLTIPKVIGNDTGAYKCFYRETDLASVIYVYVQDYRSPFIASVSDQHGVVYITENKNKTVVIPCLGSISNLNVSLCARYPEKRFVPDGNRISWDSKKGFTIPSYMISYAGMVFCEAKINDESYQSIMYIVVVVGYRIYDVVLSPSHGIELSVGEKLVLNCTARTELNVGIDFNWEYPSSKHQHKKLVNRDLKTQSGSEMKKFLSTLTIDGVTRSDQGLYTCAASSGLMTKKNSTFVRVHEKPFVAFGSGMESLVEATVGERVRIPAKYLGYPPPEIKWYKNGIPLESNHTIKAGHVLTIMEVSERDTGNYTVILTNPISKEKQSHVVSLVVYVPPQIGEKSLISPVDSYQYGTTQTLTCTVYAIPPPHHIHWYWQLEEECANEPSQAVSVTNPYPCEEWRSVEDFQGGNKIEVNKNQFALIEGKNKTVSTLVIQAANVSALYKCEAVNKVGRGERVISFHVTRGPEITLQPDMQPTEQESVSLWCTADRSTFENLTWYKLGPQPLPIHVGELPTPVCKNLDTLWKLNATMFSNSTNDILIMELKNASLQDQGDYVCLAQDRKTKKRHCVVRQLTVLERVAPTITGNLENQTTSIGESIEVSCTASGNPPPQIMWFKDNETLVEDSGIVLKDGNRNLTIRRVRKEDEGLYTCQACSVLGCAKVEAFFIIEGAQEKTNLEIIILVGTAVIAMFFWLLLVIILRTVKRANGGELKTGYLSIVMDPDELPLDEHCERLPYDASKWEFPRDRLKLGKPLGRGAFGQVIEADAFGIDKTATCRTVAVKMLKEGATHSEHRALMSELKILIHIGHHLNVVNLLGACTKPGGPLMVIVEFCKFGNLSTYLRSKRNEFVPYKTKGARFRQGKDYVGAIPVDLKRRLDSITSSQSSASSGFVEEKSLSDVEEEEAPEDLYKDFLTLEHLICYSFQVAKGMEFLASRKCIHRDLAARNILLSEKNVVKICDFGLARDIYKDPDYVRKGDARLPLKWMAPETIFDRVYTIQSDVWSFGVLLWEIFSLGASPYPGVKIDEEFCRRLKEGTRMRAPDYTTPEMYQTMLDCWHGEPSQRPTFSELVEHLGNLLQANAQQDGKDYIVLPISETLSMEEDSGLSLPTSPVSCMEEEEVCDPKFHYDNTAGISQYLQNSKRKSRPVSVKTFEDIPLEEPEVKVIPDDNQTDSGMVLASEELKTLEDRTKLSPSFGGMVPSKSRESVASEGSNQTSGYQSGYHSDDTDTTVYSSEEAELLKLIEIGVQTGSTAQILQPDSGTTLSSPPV
row,IC50 [µM],SMILES
1,< 10,"COc1ccc(N2C(=O)N(c3cccc(C(N)=O)c3)c3nc(Nc4ccccc4)ncc3C2C)cc1 (racemic) [Example 6, (±)-3-[3-(4-Methoxy-phenyl)-4-methyl-2-oxo-7-phenylamino-3,4-dihydro-2H-pyrimido[4,5-d]pyrimidin-1-yl]-benzamide]"
2,< 10,"COc1ccc(N2C(=O)N(c3ccc(OC)cc3)C(C)c3cnc(Nc4ccccc4)nc32)cc1 (racemic) [Example 4b, (±)-1,3-Bis-(4-methoxy-phenyl)-4-methyl-7-phenylamino-3,4-dihydro-1H-pyrimido[4,5-d]pyrimidin-2-one]"
3,< 10,"COc1ccc(N2C(=O)N(c3ccccc3)c3nc(Nc4ccccc4)ncc3C2C)c(F)c1 (racemic) [Example 8d, (±)-3-(2-Fluoro-4-methoxy-phenyl)-4-methyl-1-phenyl-7-phenylamino-3,4-dihydro-1H-pyrimido[4,5-d]pyrimidin-2-one]"
4,< 10,"COc1ccc(N2C(=O)N([C@H](C)CO)c3nc(Nc4ccccc4)ncc3[C@@H]2C)cc1 [Example 15b, 1-(2-Hydroxy-1-(R)-methyl-ethyl)-3-(4-methoxy-phenyl)-4-(S)-methyl-7-phenylamino-3,4-dihydro-1H-pyrimido[4,5-d]pyrimidin-2-one]"
5,< 10,"COc1ccc(N2C(=O)N(c3cccc(C(N)=O)c3)c3nc(Nc4ccccc4)ncc3C2C)c(F)c1 (racemic) [Example 10, (±)-3-[3-(2-Fluoro-4-methoxy-phenyl)-4-methyl-2-oxo-7-phenylamino-3,4-dihydro-2H-pyrimido[4,5-d]pyrimidin-1-yl]-benzamide]"
6,< 10,"COc1ccc(N2C(=O)N(c3cccc(C#N)c3)c3nc(Nc4ccccc4)ncc3C2C)cc1 (racemic) [Example 5b, (±)-3-[3-(4-Methoxy-phenyl)-4-methyl-2-oxo-7-phenylamino-3,4-dihydro-2H-pyrimido[4,5-d]pyrimidin-1-yl]-benzonitrile]"
7,< 10,"COc1ccc(N2C(=O)N(c3ccccc3)c3nc(Nc4ccccc4)ncc3C2C)cc1 (racemic) [Example 1g, (±)-3-(4-Methoxy-phenyl)-4-methyl-1-phenyl-7-phenylamino-3,4-dihydro-1H-pyrimido[4,5-d]pyrimidin-2-one]"
8,< 10,"COc1ccc(N2C(=O)N(c3ccccc3)c3nc(Nc4ccccc4)ncc3[C@@H]2C)cc1 (single isomer, unassigned) [Example 3]"
9,< 10,"COc1ccc(N2C(=O)N(c3cccc(C#N)c3)c3nc(Nc4ccccc4)ncc3C2C)c(F)c1 (racemic) [Example 9b, (±)-3-[3-(2-Fluoro-4-methoxy-phenyl)-4-methyl-2-oxo-7-phenylamino-3,4-dihydro-2H-pyrimido[4,5-d]pyrimidin-1-yl]-benzonitrile]"
